{"source": "ChEMBL document CHEMBL4610106", "about": "“Identification of the Clinical Development Candidate MRTX849, a Covalent KRASG12C Inhibitor for the Treatment of Cancer” (J Med Chem, 2020)", "key": {"[1]": {"experiment": "Drug metabolism in mouse hepatocytes assessed as peak area for metabolite formed due to biotransformation (dealkylation; glucuronide; GSH) at 10 uM incubated for 2 hrs by LC-MS analysis", "assay_type": "ADME, cell-based, Hepatocyte"}, "[2]": {"experiment": "Volume of distribution at steady state in rat at 3 mg/kg, iv", "assay_type": "ADME, organism-based", "conditions": "in vivo"}, "[3]": {"experiment": "Clearance in beagle dog at 3 mg/kg, iv", "assay_type": "ADME, organism-based, Canis lupus familiaris", "conditions": "in vivo"}, "[4]": {"experiment": "Toxicity in athymic nude-Foxn1nu mouse xenografted with human MIAPaCa2 cells assessed as induction of body weight loss at 10 to 100 mg/kg, po dosed daily via gavage for 16 days", "assay_type": "organism-based, MIA PaCa-2", "conditions": "in vivo, 384 h"}, "[5]": {"experiment": "Half life in dog whole blood at 5 uM by LC-MS/MS analysis", "assay_type": "ADME, tissue-based, Canis lupus familiaris"}, "[6]": {"experiment": "Protein binding in mouse plasma", "assay_type": "ADME, cell-free", "conditions": "read-out: PPB (converted)"}, "[7]": {"experiment": "Volume of distribution at steady state in CD1 mouse at 3 mg/kg, iv", "assay_type": "ADME, organism-based", "conditions": "in vivo, read-out: Vdss"}, "[8]": {"experiment": "Half life in human whole blood at 5 uM by LC-MS/MS analysis", "assay_type": "ADME, tissue-based"}, "[9]": {"experiment": "Drug metabolism in mouse hepatocytes assessed as peak area for metabolite formed due to biotransformation (sulfate) at 10 uM incubated for 2 hrs by LC-MS analysis", "assay_type": "ADME, cell-based, Hepatocyte"}, "[10]": {"experiment": "Half life in rat at 3 mg/kg, iv", "assay_type": "ADME, organism-based", "conditions": "in vivo"}, "[11]": {"experiment": "Tmax in rat at 30 mg/kg, po", "assay_type": "ADME, organism-based", "conditions": "in vivo"}, "[12]": {"experiment": "Half life in beagle dog at 3 mg/kg, iv", "assay_type": "ADME, organism-based, Canis lupus familiaris", "conditions": "in vivo"}, "in vivo [13]": {"experiment": "in vivo", "conditions": "rat, po, 30 mg/kg"}, "[14]": {"experiment": "Apparent permeability in pig LLC-PK1 cells", "assay_type": "ADME, cell-based, Sus scrofa", "conditions": "read-out: permeability"}, "[15]": {"experiment": "Tmax in beagle dog at 30 mg/kg, po", "assay_type": "ADME, organism-based, Canis lupus familiaris", "conditions": "in vivo"}, "[16]": {"experiment": "Drug metabolism in mouse hepatocytes assessed as peak area for metabolite formed due to biotransformation (dealkylation; GSH) at 10 uM incubated for 2 hrs by LC-MS analysis", "assay_type": "ADME, cell-based, Hepatocyte"}, "[17]": {"experiment": "Drug metabolism in mouse hepatocytes assessed as peak area for metabolite formed due to biotransformation (glucuronide) at 10 uM incubated for 2 hrs by LC-MS analysis", "assay_type": "ADME, cell-based, Hepatocyte"}, "[18]": {"experiment": "AUC (infinity) in beagle dog at 30 mg/kg, po", "assay_type": "ADME, organism-based, Canis lupus familiaris", "set-up": "dose 30 mg/kg, route oral, time infinity", "conditions": "in vivo"}, "[19]": {"experiment": "AUC (infinity) in CD1 mouse at 30 mg/kg, po", "assay_type": "ADME, organism-based", "set-up": "dose 30 mg/kg, time infinity, route oral", "conditions": "in vivo"}, "[20]": {"experiment": "Solubility in FaSSIF at pH 6.5", "assay_type": "physicochemical"}, "[21]": {"experiment": "Volume of distribution at steady state in beagle dog at 3 mg/kg, iv", "assay_type": "ADME, organism-based, Canis lupus familiaris", "conditions": "in vivo, read-out: Vdss"}, "[22]": {"experiment": "Drug metabolism in mouse hepatocytes assessed as peak area for metabolite formed due to biotransformation ( GSH) at 10 uM incubated for 2 hrs by LC-MS analysis", "assay_type": "ADME, cell-based, Hepatocyte"}, "[23]": {"experiment": "Tmax in CD1 mouse at 30 mg/kg, po", "assay_type": "ADME, organism-based", "conditions": "in vivo"}, "[24]": {"experiment": "Cmax in CD1 mouse at 30 mg/kg, po", "assay_type": "ADME, organism-based", "set-up": "dose 30 mg/kg, route oral", "conditions": "in vivo"}, "in vivo [25]": {"experiment": "in vivo", "conditions": "beagle, dog, po, 30 mg/kg"}, "MIA PaCa-2": {"system": "MIA PaCa-2", "experiment": "Antitumor activity against human MIAPaCa2 cells xenografted in athymic nude-Foxn1nu mouse assessed as maximally efficacious dose for induction of tumor regression at 10 to 100 mg/kg, po dosed daily via gavage for 16 days", "assay_type": "functional"}, "[26]": {"experiment": "Drug metabolism in mouse hepatocytes assessed as peak area for metabolite formed due to biotransformation (dealkylation; glucuronide) at 10 uM incubated for 2 hrs by LC-MS analysis", "assay_type": "ADME, cell-based, Hepatocyte"}, "[27]": {"experiment": "Cmax in beagle dog at 30 mg/kg, po", "assay_type": "ADME, organism-based, Canis lupus familiaris", "set-up": "dose 30 mg/kg, route oral", "conditions": "in vivo"}, "[28]": {"experiment": "Clearance in CD1 mouse at 3 mg/kg, iv", "assay_type": "ADME, organism-based", "conditions": "in vivo"}, "[29]": {"experiment": "AUC (infinity) in rat at 30 mg/kg, po", "assay_type": "ADME, organism-based", "set-up": "dose 30 mg/kg, time infinity, route oral", "conditions": "in vivo"}, "[30]": {"experiment": "Cmax in rat at 30 mg/kg, po", "assay_type": "ADME, organism-based", "set-up": "dose 30 mg/kg, route oral", "conditions": "in vivo"}, "[31]": {"experiment": "Half life in mouse whole blood at 5 uM by LC-MS/MS analysis", "assay_type": "ADME, tissue-based"}, "[32]": {"experiment": "Protein binding in human plasma", "assay_type": "ADME, cell-free", "conditions": "read-out: PPB (converted)"}, "[33]": {"experiment": "Drug metabolism in mouse hepatocytes assessed as peak area for metabolite formed due to biotransformation (glucuronide; GSH) at 10 uM incubated for 2 hrs by LC-MS analysis", "assay_type": "ADME, cell-based, Hepatocyte"}, "[34]": {"experiment": "Half life in CD1 mouse at 3 mg/kg, iv", "assay_type": "ADME, organism-based", "conditions": "in vivo"}}, "data": [{"smiles": "C=C(F)C(=O)N1CCN(c2nc(OC[C@@H]3CCCN3C)nc3c2CCN(c2cccc4cccc(Cl)c24)C3)C[C@@H]1CC#N", "note": "[ADAGRASIB]", "values": [{"measurement": "Drug metabolism", "setting": "[1]", "value": "Metabolite_Notdetected"}, {"measurement": "Vdss", "setting": "[2]", "value": 20.7, "unit": "L/kg"}, {"measurement": "clearance", "setting": "[3]", "value": 29.6, "unit": "mL/min/kg"}, {"measurement": "Activity", "setting": "[4]", "value": "Non-Toxic"}, {"measurement": "half-life at 5 µM", "setting": "[5]", "value": "> 50", "unit": "h"}, {"measurement": "fraction unbound", "setting": "[6]", "value": 0.01}, {"measurement": "Vd", "setting": "[7]", "value": 2.02, "unit": "L/kg"}, {"measurement": "half-life at 5 µM", "setting": "[8]", "value": "> 50", "unit": "h"}, {"measurement": "Drug metabolism", "setting": "[9]", "value": "Metabolite_Notdetected"}, {"measurement": "t1/2", "setting": "[10]", "value": 2.57, "unit": "h"}, {"measurement": "Tmax", "setting": "[11]", "value": 2.67, "unit": "h"}, {"measurement": "half-life", "setting": "[12]", "value": 7.56, "unit": "h"}, {"measurement": "bioavailability", "setting": "in vivo [13]", "value": 29.7, "unit": "%"}, {"measurement": "Papp", "setting": "[14]", "value": 4.7, "unit": "×10⁻⁶ cm/s"}, {"measurement": "Tmax", "setting": "[15]", "value": 4, "unit": "h"}, {"measurement": "Drug metabolism", "setting": "[16]", "value": "Metabolite_Notdetected"}, {"measurement": "Drug metabolism", "setting": "[17]", "value": "Metabolite_Notdetected"}, {"measurement": "AUC(0-inf)", "setting": "[18]", "value": 4470, "unit": "ng·h/mL"}, {"measurement": "AUC(0-inf)", "setting": "[19]", "value": 15900, "unit": "ng·h/mL"}, {"measurement": "solubility", "setting": "[20]", "value": 568, "unit": "µg/mL"}, {"measurement": "Vd", "setting": "[21]", "value": 17.4, "unit": "L/kg"}, {"measurement": "Drug metabolism", "setting": "[22]", "value": "Metabolite_Notdetected"}, {"measurement": "Tmax", "setting": "[23]", "value": 1, "unit": "h"}, {"measurement": "Cmax", "setting": "[24]", "value": 2410, "unit": "ng/mL"}, {"measurement": "bioavailability", "setting": "in vivo [25]", "value": 25.9, "unit": "%"}, {"measurement": "Activity", "setting": "MIA PaCa-2", "value": "30 to 100", "unit": "mg/kg"}, {"measurement": "Drug metabolism", "setting": "[26]", "value": "Metabolite_Notdetected"}, {"measurement": "Cmax", "setting": "[27]", "value": 252, "unit": "ng/mL"}, {"measurement": "clearance", "setting": "[28]", "value": 19.9, "unit": "mL/min/kg"}, {"measurement": "AUC(0-inf)", "setting": "[29]", "value": 2670, "unit": "ng·h/mL"}, {"measurement": "Cmax", "setting": "[30]", "value": 209, "unit": "ng/mL"}, {"measurement": "half-life at 5 µM", "setting": "[31]", "value": "> 50", "unit": "h"}, {"measurement": "fraction unbound", "setting": "[32]", "value": 0.017}, {"measurement": "Drug metabolism", "setting": "[33]", "value": "Metabolite_Notdetected"}, {"measurement": "half-life", "setting": "[34]", "value": 1.51, "unit": "h"}]}]}
